Experimental data published in patent publication US7090991B2 (priority 1999, dated 2006).
Non-standard residues stand in square brackets, D forms with d. Residues, ends and D or L forms follow the SMILES beside them. No end group written: not given here.

Tests used:
melatonin ML1a receptor = target: T1, melatonin ML1a receptor (Homo sapiens, UniProt P48039); test: Two cell assay: MATα test cells with ML1a receptor (CY13858) + MATa FUS1p-LacZ detector cells, β-galactosidase (CPRG); assay type: cell-based
T1 construct: expressed in transfected cells; host or cells: S. cerevisiae MATα test cells (CY13858; CY18596, MFα1-deleted), plasmid CP2695
T1 sequence (P48039 whole entry): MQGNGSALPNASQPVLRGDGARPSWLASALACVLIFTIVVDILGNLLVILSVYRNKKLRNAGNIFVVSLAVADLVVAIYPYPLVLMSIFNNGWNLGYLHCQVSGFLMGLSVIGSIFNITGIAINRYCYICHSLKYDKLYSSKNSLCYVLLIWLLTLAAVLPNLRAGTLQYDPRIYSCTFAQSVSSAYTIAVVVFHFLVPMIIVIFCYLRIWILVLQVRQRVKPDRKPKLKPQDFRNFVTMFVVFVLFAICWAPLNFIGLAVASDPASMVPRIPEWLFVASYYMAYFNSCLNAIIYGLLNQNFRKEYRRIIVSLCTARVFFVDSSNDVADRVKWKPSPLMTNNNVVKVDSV
Description: Binding of cognate ligand to the heterologous receptor in the test cell activates the receptor, causing a signal to be transduced through the pheromone response pathway, ultimately resulting in the secretion of α-factor from the cell. Specific receptors at the surface of the detector cells bind to the secreted α-factor and are activated by it, resulting in the transduction of a signal through the pheromone response pathway in these cells, and activating the transcription of the lacZ gene. The activity of the β-galactosidase expressed from this lacZ gene may be determined and thereby enables a determination of the activity of the pheromone response pathway in the first, test cells.
A strain of test cells was established by transforming (transfecting) a culture of S. cerevisiae yeast cells with the human1a (ML1a) receptor gene. […] After determination of the optical density of the cultures, the cells were harvested by centrifugation, were washed once in non-selective synthetic medium, and were resuspended in non-selective medium at an approximate optical density (measured at 600 nm) of 0.4. […] The reaction was then stopped by the addition of 60 microliters 1 M sodium carbonate, and the absorbance at a wavelength of 575 nm was determined using a plate reader.

[1] = tested on: MATα test cells lacking the ML1a receptor; test: Two cell assay: MFα1-deleted MATα test cells with mock plasmid (CY18594) + MATa detector cells, β-galactosidase (CPRG); assay type: cell-based, S. cerevisiae; settings: in the presence of melatonin
Protocol: (§1) Cultures of MATα test cells containing a heterologous ML1a receptor (CY1 3858) and MATa detector cells (a CY19 related strain containing the CP1212 FUS1p-LacZ plasmid) were grown overnight to stationary phase in media selective for the maintenance of the plasmids (SCD-leu media for the MATα cells and SCD-ura for the MATα cells). The cells were diluted with additional medium and permitted to recover from stationary phase for several hours. After determination of the optical density of the cultures, the cells were harvested by centrifugation, were washed once in non-selective synthetic medium, and were resuspended in non-selective medium at an approximate optical density (measured at 600 nm) of 0.4. […] The final volume of cells, culture medium and ligand was about 100 microliters. The cells were mixed using a plate-mixer and incubated at 30° C. […] The reaction was then stopped by the addition of 60 microliters 1 M sodium carbonate, and the absorbance at a wavelength of 575 nm was determined using a plate reader.

ML1a melatonin receptor = target: T2, ML1a melatonin receptor (Homo sapiens, UniProt P48039); test: Two cell assay: MFα1-deleted MATα test cells with ML1a receptor (CY18596) + MATa detector cells, β-galactosidase (CPRG); assay type: cell-based; settings: MFα1-deleted test cells expressing ML1a receptor
T2 construct: expressed in transfected cells; host or cells: S. cerevisiae MATα test cells (CY13858; CY18596, MFα1-deleted), plasmid CP2695
T2 sequence (P48039 whole entry): as above
Protocol: as §1
Using the experimental protocol described in Example 1, MATα test cells lacking the MFα1 gene and containing a plasmid encoding the ML1a receptor (CY18596) or a mock control plasmid (CY18594) were mixed with an equal number of MATa detector cells having a FUS1-LacZ plasmid. […]

Bradykinin 2 Receptor [2] = target: T3, Bradykinin 2 Receptor (Homo sapiens, UniProt P30411); test: Test cell + FUS1p-lacZ plasmid, BK2; assay type: cell-based; settings: CY18778, CP1930, saturating or near saturating ligand
T3 construct: expressed in transfected cells; host or cells: S. cerevisiae MATα test cells, plasmid CP1930
T3 sequence (P30411 1-391): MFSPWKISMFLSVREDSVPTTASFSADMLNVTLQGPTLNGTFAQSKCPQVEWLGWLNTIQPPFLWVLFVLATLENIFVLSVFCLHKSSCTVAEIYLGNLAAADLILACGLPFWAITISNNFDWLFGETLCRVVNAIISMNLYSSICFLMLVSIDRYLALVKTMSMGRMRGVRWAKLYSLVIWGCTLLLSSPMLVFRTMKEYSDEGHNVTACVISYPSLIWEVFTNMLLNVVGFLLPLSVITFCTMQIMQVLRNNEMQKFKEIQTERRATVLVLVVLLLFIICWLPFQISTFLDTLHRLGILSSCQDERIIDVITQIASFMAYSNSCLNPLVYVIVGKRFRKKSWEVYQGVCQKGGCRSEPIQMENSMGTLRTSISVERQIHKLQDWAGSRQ
Protocol: (§2) Detection of LacZ activity in the detector cells (data shown in Table 6) was performed essentially as described in the experimental protocol of Example 1, with the exception that 20 microliters of a solution containing 0.5 mM fluorescein di-β-D-galactopyranoside (FDG), 125 mM PIPES pH 7.2, 1.25% Triton X-100 was added instead of the 20 microliters of CPRG solution utilized in Example 1. Following addition of the FDG solution, the reaction was incubated for 30 minutes at 37° C. After stopping the reaction with 20 microliters of 1 M Na2CO3, the fluorescence was determined utilizing a 96-well plate reader with an excitation wavelength of 485 nm and an emission wavelength of 535 nm.

Bradykinin 2 Receptor [3] = target: T3, Bradykinin 2 Receptor; test: Test cell + detector cell (FDG), BK2; assay type: cell-based; settings: CY18778, CP1930, saturating or near saturating ligand
Protocol: (§3) A strain of test cells was established by transforming (transfecting) a culture of S. cerevisiae yeast cells with the human1a (ML1a) receptor gene. Cultures of MATα test cells containing a heterologous ML1a receptor (CY1 3858) and MATa detector cells (a CY19 related strain containing the CP1212 FUS1p-LacZ plasmid) were grown overnight to stationary phase in media selective for the maintenance of the plasmids (SCD-leu media for the MATα cells and SCD-ura for the MATα cells). The cells were diluted with additional medium and permitted to recover from stationary phase for several hours. After determination of the optical density of the cultures, the cells were harvested by centrifugation, were washed once in non-selective synthetic medium, and were resuspended in non-selective medium at an approximate optical density (measured at 600 nm) of 0.4. […] The final volume of cells, culture medium and ligand was about 100 microliters. The cells were mixed using a plate-mixer and incubated at 30° C. […] The reaction was then stopped by the addition of 60 microliters 1 M sodium carbonate, and the absorbance at a wavelength of 575 nm was determined using a plate reader. […]

R-VIP-1 Rat = test: Test cell + detector cell (FDG), R-VIP-1; assay type: cell-based; settings: CY18636, CP4110, saturating or near saturating ligand
Protocol: as §3

R-VIP-1 = test: Test cell + FUS1p-lacZ plasmid, R-VIP-1; assay type: cell-based, Rat; settings: CY18636, CP4110, saturating or near saturating ligand
Protocol: as §2

[4] = tested on: Growth Hormone Secretagoge Receptor; test: Test cell + detector cell (FDG), GHSR; assay type: cell-based, sheep; settings: CY18879, CP6416, saturating or near saturating ligand
Protocol: as §3

[5] = tested on: Growth Hormone Secretagoge Receptor; test: Test cell + FUS1p-lacZ plasmid, GHSR; assay type: cell-based, sheep; settings: CY18879, CP6416, saturating or near saturating ligand
Protocol: as §2

COc1ccc2[nH]cc(CCNC(C)=O)c2c1 [melatonin]
β-galactosidase activity in the detector cells (melatonin ML1a receptor; in the presence of melatonin, no ligand approximately 1.1 units): approximately 1.8 units
induction in β-galactosidase activity (melatonin ML1a receptor; melatonin versus no ligand): approximately 1.6 fold
α-factor secretion by test cells as detected by detector cells [1]: did not secrete any additional α-factor
β-galactosidase activity (ML1a melatonin receptor; in the presence of melatonin): approximately 2.1 units
increase in β-galactosidase activity (ML1a melatonin receptor; melatonin versus no ligand): ~5.2 fold

RPPGFSPFR [Bradykinin]
Fold induction, Test Cell + FUS1p-lacZ plasmid (Bradykinin 2 Receptor [2]): 101 fold
Fold induction, Test cell + Detector Cell (Bradykinin 2 Receptor [3]): 84 fold

NC(=O)CC[C@@H]1NC(=O)[C@H](Cc2ccccc2)NC(=O)[C@H](Cc2ccc(O)cc2)NC(=O)[C@@H](N)CSSC[C@@H](C(=O)N2CCC[C@H]2C(=O)N[C@@H](CCCN=C(N)N)C(=O)NCC(N)=O)NC(=O)[C@H](CC(N)=O)NC1=O [Vasopressin]
Fold induction, Test cell + Detector Cell (R-VIP-1 Rat): 8 fold
Fold induction, Test Cell + FUS1p-lacZ plasmid (R-VIP-1): 20 fold

C[C@H](NC(=O)[C@@H](Cc1c[nH]c2ccccc12)NC(=O)[C@@H](N)Cc1c[nH]cn1)C(=O)N[C@@H](Cc1c[nH]c2ccccc12)C(=O)N[C@H](Cc1ccccc1)C(=O)N[C@@H](CCCCN)C(N)=O [GHRP-6] (H-H[dW]AW[dF]K-NH2)
Fold induction, Test cell + Detector Cell [4]: 4 fold
Fold induction, Test Cell + FUS1p-lacZ plasmid [5]: 9 fold
